According to the supplement of paper PMC10307832:

What was measured:
Test in all cases: relative viability (nuclei count vs DMSO), 5 days (fraction); higher = more cells survive
[1] = test system: CAL-12T
In short: (§1)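 Lung cancer cell lines in 1536-well plates were dosed by pin tool the day after seeding, either with one drug alone or with a fixed anchor-drug dose plus five library-drug doses (not always all listed) in √10 steps. After 5 days, cells were fixed and their nuclei stained in one step (final 0.05% Triton X-100, 1% formaldehyde, 1 ug/ml Hoechst), then counted on 4× images. Relative viability is the nuclei count in treated wells divided by that in vehicle wells. Values are medians of duplicate plates.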

[2] = test system: EKVX
In short: as §1

[3] = test system: H3255
In short: as §1

[4] = test system: HCC-15
In short: as §1

[5] = test system: HCC-827
In short: as §1

[6] = test system: LCLC-97TM1
In short: as §1

[7] = test system: LK-2
In short: as §1

[8] = test system: NCI-H1355
In short: as §1

[9] = test system: NCI-H1563
In short: as §1

[10] = test system: NCI-H1734
In short: as §1

[11] = test system: NCI-H1755
In short: as §1

[12] = test system: NCI-H1975
In short: as §1

[13] = test system: NCI-H2228
In short: as §1

[14] = test system: NCI-H2405
In short: as §1

[15] = test system: NCI-H322M
In short: as §1

[16] = test system: NCI-H520
In short: as §1

[17] = test system: NCI-H661
In short: as §1

[18] = test system: PC-14
In short: as §1

[19] = test system: PC-3 [JPC-3]
In short: as §1

[20] = test system: RERF-LC-KJ
In short: as §1

`COc1nc(C)cnc1NS(=O)(=O)c1cccnc1-c1ccc(-c2nnco2)cc1` [Zibotentan] + Cc1nc(NC(=O)N2CCC[C@H]2C(N)=O)sc1-c1ccnc(C(C)(C)C(F)(F)F)c1 [Alpelisib] (partner 2 µM) showed a relative viability ([1]; first compound 0.08 µM) of 1.25, a relative viability ([1]; first compound 0.253 µM) of 0.923 and a relative viability ([1]; first compound 0.8 µM) of 1.33. The relative viability ([1]; first compound 2.53 µM) was 1.23, the relative viability ([2]; first compound 0.08 µM) was 0.927 and the relative viability ([2]; first compound 0.253 µM) was 0.86. The relative viability ([2]; first compound 0.8 µM) was 0.775, the relative viability ([2]; first compound 2.53 µM) was 0.82 and the relative viability ([3]; first compound 0.08 µM) was 0.712. It also gave a relative viability ([3]; first compound 0.253 µM) of 0.698, a relative viability ([3]; first compound 0.8 µM) of 0.672 and a relative viability ([3]; first compound 2.53 µM) of 0.727. It also gave a relative viability ([4]; first compound 0.08 µM) of 0.954, a relative viability ([4]; first compound 0.253 µM) of 0.884 and a relative viability ([4]; first compound 0.8 µM) of 0.869. It also gave a relative viability ([4]; first compound 2.53 µM) of 0.844, a relative viability ([5]; first compound 0.08 µM) of 1.01 and a relative viability ([5]; first compound 0.253 µM) of 1.07. The relative viability ([5]; first compound 0.8 µM) was 0.808, the relative viability ([5]; first compound 2.53 µM) was 0.975 and the relative viability ([6]; first compound 0.08 µM) was 0.309. The relative viability ([6]; first compound 0.253 µM) was 0.238, the relative viability ([6]; first compound 0.8 µM) was 0.183 and the relative viability ([6]; first compound 2.53 µM) was 0.264. The relative viability ([7]; first compound 0.08 µM) was 1.08, the relative viability ([7]; first compound 0.253 µM) was 0.911 and the relative viability ([7]; first compound 0.8 µM) was 0.889. It also gave a relative viability ([7]; first compound 2.53 µM) of 1.46, a relative viability ([8]; first compound 0.08 µM) of 0.942 and a relative viability ([8]; first compound 0.253 µM) of 0.898. For the same compound, the relative viability ([8]; first compound 0.8 µM) was 0.825, the relative viability ([8]; first compound 2.53 µM) was 0.794 and the relative viability ([9]; first compound 0.08 µM) was 0.978. For the same compound, the relative viability ([9]; first compound 0.253 µM) was 0.666, the relative viability ([9]; first compound 0.8 µM) was 1.01 and the relative viability ([9]; first compound 2.53 µM) was 1.02. It also gave a relative viability ([10]; first compound 0.08 µM) of 0.794, a relative viability ([10]; first compound 0.253 µM) of 0.726 and a relative viability ([10]; first compound 0.8 µM) of 0.681. It also gave a relative viability ([10]; first compound 2.53 µM) of 0.686, a relative viability ([11]; first compound 0.08 µM) of 0.887 and a relative viability ([11]; first compound 0.253 µM) of 0.911. It also gave a relative viability ([11]; first compound 0.8 µM) of 0.937, a relative viability ([11]; first compound 2.53 µM) of 0.94 and a relative viability ([12]; first compound 0.08 µM) of 0.635. The relative viability ([12]; first compound 0.253 µM) was 0.548, the relative viability ([12]; first compound 0.8 µM) was 0.642 and the relative viability ([12]; first compound 2.53 µM) was 0.585. It also gave a relative viability ([13]; first compound 0.08 µM) of 0.66, a relative viability ([13]; first compound 0.253 µM) of 0.652 and a relative viability ([13]; first compound 0.8 µM) of 0.59. The relative viability ([13]; first compound 2.53 µM) was 0.873, the relative viability ([14]; first compound 0.08 µM) was 0.787 and the relative viability ([14]; first compound 0.253 µM) was 0.65. It also gave a relative viability ([14]; first compound 0.8 µM) of 0.745, a relative viability ([14]; first compound 2.53 µM) of 0.948 and a relative viability ([15]; first compound 0.08 µM) of 0.692. For the same compound, the relative viability ([15]; first compound 0.253 µM) was 0.704, the relative viability ([15]; first compound 0.8 µM) was 0.719 and the relative viability ([15]; first compound 2.53 µM) was 0.905. For the same compound, the relative viability ([16]; first compound 0.08 µM) was 0.928, the relative viability ([16]; first compound 0.253 µM) was 0.848 and the relative viability ([16]; first compound 0.8 µM) was 0.768. For the same compound, the relative viability ([16]; first compound 2.53 µM) was 0.972, the relative viability ([17]; first compound 0.08 µM) was 0.717 and the relative viability ([17]; first compound 0.253 µM) was 0.49. The relative viability ([17]; first compound 0.8 µM) was 0.569, the relative viability ([17]; first compound 2.53 µM) was 0.578 and the relative viability ([18]; first compound 0.08 µM) was 0.98. It also gave a relative viability ([18]; first compound 0.253 µM) of 0.872, a relative viability ([18]; first compound 0.8 µM) of 1.06 and a relative viability ([18]; first compound 2.53 µM) of 0.944. It also gave a relative viability ([19]; first compound 0.08 µM) of 1.01, a relative viability ([19]; first compound 0.253 µM) of 1.06 and a relative viability ([19]; first compound 0.8 µM) of 1.05. The relative viability ([19]; first compound 2.53 µM) was 1.04, the relative viability ([20]; first compound 0.08 µM) was 0.865 and the relative viability ([20]; first compound 0.253 µM) was 0.898. It also gave a relative viability ([20]; first compound 0.8 µM) of 0.826 and a relative viability ([20]; first compound 2.53 µM) of 0.83.
